Laboratory results as given in patent US7238716B2, “Alkanoic acid derivatives process for their production and use thereof” (Takeda Pharmaceuticals Company Limited, priority 2000, dated 2007).
pEC50: −log10 of the molar value. Where two headings read alike, the source gives them in different places.

Tests used:
PPARγ-RXRα heterodimer = target: T1, PPARγ-RXRα heterodimer (Homo sapiens, UniProt P37231); test: PPARγ-RXRα heterodimer ligand activity, luciferase reporter in PPARγ:RXRα:4ERPP/CHO-K1 cells (Test Example 3); format: cell-based; conditions: concentration for 50% of the maximum fold induction of luciferase activity; 48 hours, CHO-K1 cells
T1 construct: expressed in transfected cells; host or cells: CHO-K1
T1 sequence (P37231 1-477 isoform P37231-2): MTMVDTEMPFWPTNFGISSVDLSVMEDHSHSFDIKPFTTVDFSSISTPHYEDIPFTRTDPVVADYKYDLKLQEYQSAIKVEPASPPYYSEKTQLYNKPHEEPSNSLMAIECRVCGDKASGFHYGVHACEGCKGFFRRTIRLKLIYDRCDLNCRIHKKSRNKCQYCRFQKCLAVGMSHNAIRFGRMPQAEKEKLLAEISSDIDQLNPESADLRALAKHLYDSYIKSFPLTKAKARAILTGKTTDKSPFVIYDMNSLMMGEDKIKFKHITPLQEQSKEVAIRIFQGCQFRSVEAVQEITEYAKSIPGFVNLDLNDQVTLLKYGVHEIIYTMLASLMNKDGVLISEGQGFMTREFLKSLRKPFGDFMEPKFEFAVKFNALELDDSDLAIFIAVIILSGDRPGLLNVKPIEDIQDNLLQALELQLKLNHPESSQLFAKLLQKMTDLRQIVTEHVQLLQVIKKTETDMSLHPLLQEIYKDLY
T1 sequence (P19793 1-462 partner): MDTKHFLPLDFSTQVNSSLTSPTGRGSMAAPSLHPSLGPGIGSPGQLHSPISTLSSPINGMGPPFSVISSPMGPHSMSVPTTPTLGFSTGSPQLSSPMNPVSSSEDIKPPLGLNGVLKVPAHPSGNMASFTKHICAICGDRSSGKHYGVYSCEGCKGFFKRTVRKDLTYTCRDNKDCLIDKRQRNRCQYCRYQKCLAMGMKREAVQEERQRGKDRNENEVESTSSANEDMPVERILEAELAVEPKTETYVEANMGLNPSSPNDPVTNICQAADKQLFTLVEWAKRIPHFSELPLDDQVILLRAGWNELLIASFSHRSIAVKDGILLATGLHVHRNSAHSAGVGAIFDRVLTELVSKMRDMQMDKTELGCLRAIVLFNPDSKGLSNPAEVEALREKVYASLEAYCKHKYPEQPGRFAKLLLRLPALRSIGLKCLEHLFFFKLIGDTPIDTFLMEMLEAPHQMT
Procedure: A PPARγ:RXRα:4ERPP/CHO-K1 cells obtained in Reference Example 5 described later were cultured in HAM F12 medium (produced by NISSUI SEIYAKU) containing 10% Fetal bovine serum (produced by Life Technologies, Inc., USA) and then inoculated to a 96-well white plate (produced by Corning Costar Corporation, USA) at the density of 2×10^4 cells/well, and cultured in a CO2 gas incubator at 37° C. overnight.
After washing the 96 well white plate with PBS (Phosphate-buffered saline), 90 μl of HAM F12 medium containing 0.1% fatty acid-free bovine serum albumin (BSA) and 10 μl of test compound were added, which was cultured in a CO2 gas incubator at 37° C. for 48 hours. After removing the medium, 40 μl of PIKKAGENE 7.5 (produced by Wako Pure Chemical Industries, Ltd.) was added. After stirring, the luciferase activity was determined using Lumistar (produced by BMG Labtechnologies GmbH, Germany).
A fold induction was calculated based on the luciferase activity of each test compound by taking the luciferase activity in the test compound non administration group as 1. The values of the test compound, concentration and the fold induction were analyzed using PRISM 2.01 (produced by GraphPad Software Inc. USA) to calculate the EC50 values, the effective concentration of a test compound for 50% of the maximum fold induction.
After a CHO-K1 cell cultured in a 750 ml tissue culture flask (produced by Corning-Costar Corporation, USA) containing HAM F12 medium (produced by NISSUI SEIYAKU) supplemented with 10% Fetal Bovine Serum (produced by Life Technologies, Inc., USA) was scraped by treating with 0.5 g/L trypsin-0.2 g/L EDTA (ethylenediaminetetraacetic acid) (produced by Life Technologies, Inc., USA), the cell was washed with PBS (phosphate buffered saline) (produced by Life Technologies, Inc., USA), centrifuged (1000 rpm, 5 minutes), and then suspended in PBS. Subsequently, a DNA was introduced into the cell under the condition shown below using GENE PULSER (produced by Bio-Rad Laboratories, USA).
Namely, to a cuvette having a 0.4 cm gap, added were 8×10^6 cells and 10 μg of plasmid pVgRXR2-hPPARγ obtained in Reference Example 3 and 10 μg of reporter plasmid pGL3-4ERPP-TK neo obtained in Reference Example 4, which was subjected to electroporation at the voltage of 0.25 kV under the capacitance of 960 μF. Subsequently, the cell was transferred into a HAM F12 medium containing 10% Fetal Bovine. Serum and cultured for 24 hours. Then the cell was scraped again and centrifuged, and then suspended in HAM F12 medium containing 10% Fetal Bovine Serum supplemented with 500 μg/ml of GENETICIN (produced by Life Technologies, Inc., USA) and 250 μg/ml of ZEOCIN (produced by Invitrogen, USA). The suspension was diluted to the density of 10^4 cells/ml, and inoculated to a 96-well plate (produced by Corning Costar Corporation, USA), which was cultured in a CO2 gas incubator at 37° C., whereby obtaining a GENETICIN- and ZEOCIN-resistant transformant.
Subsequently, after the transformant cell line thus obtained was cultured in a 24-well plate (produced by Corning Costar Corporation, USA), selected was a cell line, PPARγ:RXRα:4ERPP/CHO-K1 cell, in which the luciferase was expressed and induced by addition of 10 μM pioglitazone hydrochloride.

KKAY mice = test: Hypoglycemic and hypolipidemic actions in mice (Test Example 1); format: in vivo; conditions: Mus musculus, po, 96 h, 0.005% in powdery diet, four days
Excerpt: Test compounds were mixed in a powdery diet (CE-2, Japan Clea) at the concentration of 0.01% (compounds of Examples 7, 26, 29, 32) or 0.005% (compounds of Examples 1, 11, 15, 18, 24, 36, 37, 41, 48, 50, 51, 52, 58, 62, 79, 83, 88, 90, 91, 92, 93, 97, 107, 110, 115, 119, 122, 125, 129 and 130), and freely given to KKAY mice (11 to 12 weeks old, 5 mice in a group), a model of type 2 diabetes mellitus, for four days. During this period, water was given freely. Blood was sampled from orbital venous plexus, and glucose and triglyceride levels in plasma separated from blood were determined enzymatically using L type Wako Glu2 (Wako Pure Chemical Industries, Ltd.) or L type Wako TG.H (Wako Pure Chemical Industries, Ltd.), respectively.
In the Table, “hypoglycemic action (%)” means a percent reduction (%) of the glucose level in the test compound administration group when that of the test compound non-administration group is taken as 100%. In addition, the “hypolipidemic action (%)” means a percent reduction (%) of the triglyceride level in the test compound administration group when that of the test compound non-administration group is taken as 100%.

[1] = percent reduction of plasma glucose level vs non-administration group, read-out: hypoglycemic action (%)
[2] = percent reduction of plasma triglyceride level vs non-administration group, read-out: hypolipidemic action (%)

Compound	melting point [°C]	pEC50 (PPARγ-RXRα heterodimer)	inhibition in vivo at 0.005 % (KKAY mice; [1]) [%]	inhibition in vivo at 0.005 % (KKAY mice; [2]) [%]
Cc1oc(-c2ccccc2)nc1COc1cncc(COc2cccc(CC(=O)O)c2)c1 [Example 78, 2-[3-[5-[(5-methyl-2-phenyl-4-oxazolyl)methoxy]-3-pyridylmethoxy]phenyl]acetic acid]	143 to 144	6.72		
Cc1oc(-c2ccccc2)nc1COc1cc(COc2cccc(CC(=O)O)c2)on1 [Example 81, 2-[3-[3-(5-methyl-2-phenyl-4-oxazolylmethoxy)-5-isoxazolylmethloxy]phenyl]acetic acid]	128 to 129	7.21		
CCCc1ccc(OCc2ccc(OCc3nc(-c4ccccc4)oc3C)cc2)c(CC(=O)O)c1 [Example 83, 2-[2-[4-[(5-methyl-2-phenyl-4-oxazolyl)methoxy]benzyloxy]-5-propylphenyl]acetic acid]	116 to 117	6.96	48	43
Cc1oc(-c2ccccc2)nc1CCc1nc(COc2ccccc2CC(=O)O)co1 [Example 99, 2-[2-[[2-[2-(5-methyl-2-phenyl-4-oxazolyl)ethyl]-4-oxazolyl]methoxy]phenyl]acetic acid]	109 to 110	6.80		
Cc1oc(-c2ccccc2)nc1CCc1nc(COc2ccccc2CC(=O)O)cs1 [Example 103, 2-[2-[[2-[2-(5-methyl-2-phenyl-4-oxazolyl)ethyl]-4-thiazolyl]methoxy]phenyl]acetic acid]	152 to 153	6.62		
Cc1sc(-c2ccccc2)nc1COc1cc(COc2ncccc2CC(=O)O)on1 [Example 115, 2-[2-[[3-[(5-methyl-2-phenyl-4-thiazolyl)methoxy]-5-isoxazolyl]methoxy]-3-pyridyl]acetic acid]	109 to 110	7.15	52	87
Cc1sc(-c2ccccc2)nc1COc1ccc(COc2ccccc2CC(=O)O)cn1 [Example 122, 2-[2-[[6-[(5-methyl-2-phenyl-4-thiazolyl)methoxy]-3-pyridyl]methoxy]phenyl]acetic acid]	173 to 174	7.77	52	67
Cc1oc(-c2ccco2)nc1COc1ccc(COc2ccccc2CC(=O)O)cn1 [Example 124]	119 to 120	7.38		
Cc1oc(-c2ccccc2)nc1COc1ccc(OCc2ncccc2CC(=O)O)cc1 [Example 125, 2-[2-[[4-[(5-methyl-2-phenyl-4-oxazolyl)methoxy]phenoxy]methyl]-3-pyridyl]acetic acid]	126 to 127	6.89	41	40
Cc1nn(-c2ccccn2)cc1COc1ccc(COc2ncccc2CC(=O)O)cc1 [Example 126, 2-[2-[4-[[3-methyl-1-(2-pyridyl)-1H-pyrazol-4-yl]methoxy]benzyloxy]-3-pyridyl]acetic acid]	150 to 151	5.77		

Continued by rising pEC50 (PPARγ-RXRα heterodimer), values first:

melting point [°C]	pEC50 (PPARγ-RXRα heterodimer)	Compound	inhibition in vivo at 0.005 % (KKAY mice; [1]) [%]	inhibition in vivo at 0.005 % (KKAY mice; [2]) [%]
122 to 123	6.48	CCOc1cc(OCc2cccc(OCc3nc(-c4ccccc4)oc3C)c2)ccc1CCC(=O)O [Example 71, 3-[2-ethoxy-4-[3-[(5-methyl-2-phenyl-4-oxazolyl)methoxy]benzyloxy]phenyl]propionic acid]		
129 to 130	6.59	CCCc1oc(-c2ccccc2)nc1COc1ccc(COc2ccccc2CC(=O)O)cc1 [Example 85, 2-[2-[4-[(2-phenyl-5-propyl-4-oxazolyl)methoxy]benzyloxy]phenyl]acetic acid]		
159 to 160	6.66	Cc1oc(-c2ccccc2)nc1CCOc1ccc(COc2ccccc2CC(=O)O)cn1 [Example 119, 2-[2-[[6-[2-(5-methyl-2-phenyl-4-oxazolyl)ethoxy]-3-pyridyl]methoxy]phenyl]acetic acid]	40	33
114 to 115	6.96	COc1ccc(COc2cccc(CC(=O)O)c2)cc1OCc1nc(-c2ccccc2)oc1C [Example 132, 3-[4-methoxy-3-[(2-phenyl-5-methyl-4-oxazolyl)methoxy]benzyloxy]phenylacetic acid]		
136 to 137	7.28	Cc1oc(-c2ccco2)nc1COc1cc(COc2cccc(CC(=O)O)c2)ccn1 [Example 90]	30	40
127 to 128	7.37	Cc1oc(-c2ccccc2)nc1CCc1nc(COc2cccc(CC(=O)O)c2)co1 [Example 101, 2-[3-[[2-[2-(5-methyl-2-phenyl-4-oxazolyl)ethyl]-4-oxazolyl]methoxy]phenyl]acetic acid]		
